Literature values in patent publication US20020025310A1, “Compositions and methods for promoting healthy joints” (priority 2000, published 2002).

Key:
[1] = 200 to 400 mg/day
[2] = tested on: complex I, IV, and V in hepatic mitochondria; details: senescent mice, compared to controls without NAC supplementation
[3] = COPD patients, 600 mg per day oral, compared to patients without NAC
[4] = 800 mg orally, heavy aerobic exercise
isolated alveolar cells = details: animal studies
PARS = PARS (Homo sapiens, UniProt P09874); details: 100 mg/day supplementation, smokers with varying levels of cytogenic damage
Chain of PARS (P09874 whole entry): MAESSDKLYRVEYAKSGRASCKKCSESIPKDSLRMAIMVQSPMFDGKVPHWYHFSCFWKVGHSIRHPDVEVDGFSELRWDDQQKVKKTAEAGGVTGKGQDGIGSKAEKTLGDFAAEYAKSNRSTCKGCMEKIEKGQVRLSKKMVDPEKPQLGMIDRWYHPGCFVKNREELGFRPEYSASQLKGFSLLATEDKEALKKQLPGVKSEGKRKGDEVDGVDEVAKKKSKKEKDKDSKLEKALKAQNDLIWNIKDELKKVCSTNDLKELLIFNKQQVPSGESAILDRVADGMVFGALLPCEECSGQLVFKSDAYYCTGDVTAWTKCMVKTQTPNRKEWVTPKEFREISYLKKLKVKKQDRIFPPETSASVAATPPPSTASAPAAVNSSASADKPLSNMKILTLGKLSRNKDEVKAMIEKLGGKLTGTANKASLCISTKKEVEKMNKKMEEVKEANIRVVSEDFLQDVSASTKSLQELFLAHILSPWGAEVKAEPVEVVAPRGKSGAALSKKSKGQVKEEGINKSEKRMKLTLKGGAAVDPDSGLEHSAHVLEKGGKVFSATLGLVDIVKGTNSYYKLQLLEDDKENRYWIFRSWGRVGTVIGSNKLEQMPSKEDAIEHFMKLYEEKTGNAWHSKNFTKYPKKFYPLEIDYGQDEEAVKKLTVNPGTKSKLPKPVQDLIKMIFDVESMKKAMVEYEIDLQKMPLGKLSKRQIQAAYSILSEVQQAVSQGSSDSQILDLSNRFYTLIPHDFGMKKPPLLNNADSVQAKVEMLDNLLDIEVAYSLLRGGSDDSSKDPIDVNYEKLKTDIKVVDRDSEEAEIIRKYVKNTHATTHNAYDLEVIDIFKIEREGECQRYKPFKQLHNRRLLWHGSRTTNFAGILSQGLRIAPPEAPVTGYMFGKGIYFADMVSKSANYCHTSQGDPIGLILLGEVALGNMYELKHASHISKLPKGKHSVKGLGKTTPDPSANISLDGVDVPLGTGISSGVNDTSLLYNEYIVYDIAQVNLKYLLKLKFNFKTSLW

For `CC(=O)N[C@@H](CS)C(=O)O` [NAC, N-acetylcysteine], the “glutathione disulfide-to-reduced glutathione ratio” value [1] is listed as “reduction”, the intercellular glutathione levels [1] is listed as “significant increase” and the “specific activities of complex I, IV, and V in hepatic mitochondria” value [2] is listed as “significantly higher”. The bacterial-positive cultures [3] was “fewer bacterial-positive cultures”, the clinical course [3] was “improved clinical course” and the use of bronchodilators [3] was “reduced use of bronchodilators”. For the same compound, the “exercise-associated damage in leukocyte DNA” value [4] was “less exercise-associated damage in leukocyte DNA”, the glutathione-to-glutathione disulfide ratio [4] was “increased” and the “plasma lipid peroxide level” value [4] was “lowered”. The “individuals reporting side effects” value (400 to 6400 mg/m^2/day in divided doses) was 13 of 26, the significant side effects (400 to 6400 mg/m^2/day in divided doses, doubled each month) was “bad taste and GI disturbances” and the “dose exceeded before any difficulty was reported” value (individuals reporting side effects) was over 800 mg/m^2. The “intracellular ATP depletion after oxidant exposure” value (isolated alveolar cells) was “helps protect”.
For `O=C(O)c1cccnc1` [nicotinic acid], the PARS activity (PARS) is given as “did not result in a significant reduction”.
